The test system of data set [1] is Respiratory Syncytial Virus. Briefly: In vitro screening for activity against RSV (tetrazolium-based colorimetric assay, protection against viral cytopathology). It is filed as cell-based. As to conditions: human respiratory syncytial virus. An outline of the steps: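 HeLa cells in Eagle's Basal Medium with 5% FCS and 20 mM Hepes, ~100 TCID50 RSV, five five-fold compound dilutions in triplicate with mock-infected row for cytotoxicity; 7 days at 37 °C, 5% CO2. MTT formazan read at 540 minus 690 nm; EC50 and CC50 from dose-response curves, SI = CC50/EC50.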

Setting [2] is: 168 h, Table 1, RSV in HeLa cells, MTT, seven days after infection, pEC50 = -log of EC50 in molar units, read-out: Activity (converted).
Setting [3] is: 168 h, Table 3, RSV in HeLa cells, MTT, seven days after infection, pEC50 = -log of EC50 in molar units, read-out: Activity (converted).
Setting [4] is: 168 h, Table 5a, RSV in HeLa cells, MTT, seven days after infection, pEC50 = -log of EC50 in molar units, read-out: Activity (converted).
Where [5] appears, read: 168 h, Table 5b, RSV in HeLa cells, MTT, seven days after infection, pEC50 = -log of EC50 in molar units, read-out: Activity (converted).
Setting [6] is: Table 6, numeric activity values, pEC50 (−log of EC50 in molar units), read-out: Activity (converted).

Broadly, the melting point is the temperature of the solid-liquid transition.

Each structure is given as a SMILES string. Where two headings read alike, the source gives them in different places.

`CC(=O)O.Cc1ccc(O)c(Cn2c(N)nc3ccc(CNc4ccccc4C)cc32)n1` [Compound 8, 2-[2-Amino-6-(o-tolylamino-methyl)-benzoimidazol-1-ylmethyl]-6-methyl-pyridin-3-ol acetic acid salt] returned a melting point of 120 °C. For the same molecule, the EC50 in data set [1] (setting [2]) is 3.16 nM.

In turn, `Cc1ccc(CCCO)c(NCc2ccc3nc(N)n(Cc4nc(C)ccc4O)c3c2)c1` [Compound 90, 2-(2-amino-6-{[2-(3-hydroxy-propyl)-5-methyl-phenylamino]-methyl}-benzimidazol-1-ylmethyl)-6-methylpyridin-3-ol] came in with a melting point of 248 °C. The EC50 in data set [1] (setting [2]) is 0.0316 nM.

In turn, `Cc1ccc(CCCO)c(NCc2ccc3nc(N)n(Cc4nc(C)ccc4OCc4ccccc4)c3c2)c1` [Compound 128] returned a melting point of 129 °C. In data set [1] (168 h, table of compound 128 (scheme E), RSV in HeLa cells, MTT, seven days after infection, read-out: Activity category (converted)), the EC50 is 126 nM.

Molecule `Cc1cccc(N(CCO)Cc2ccc3nc(N)n(Cc4nc(C)ccc4O)c3c2)c1` [Compound 129, 2-(2-amino-6-{[(2-hydroxy-ethyl)-m-tolyl-amino]-methyl}-benzoimidazol-1-ylmethyl)-6-methyl-pyridin-3-ol] gave a melting point of 210 °C. For the same molecule, the EC50 in data set [1] (setting [3]) was 0.501 nM.

The molecule `Cc1cccc(N(CCN)Cc2ccc3nc(N)n(Cc4nc(C)ccc4O)c3c2)c1.Cl` [Compound 131, 2-(2-amino-6-{[(2-amino-ethyl)-m-tolyl-amino]-methyl}-benzoimidazol-1-ylmethyl)-6-methyl-pyridin-3-ol HCl salt] displayed a melting point of 200 °C. In addition, in data set [1] (setting [3]), the EC50 was 3.98 nM.

Regarding `Cc1ccc(O)c(Cn2c(N)nc3ccc(CN(CCC(N)=O)c4cccc(Br)c4)cc32)n1` [Compound 137, 3-[[2-Amino-3-(3-hydroxy-6-methyl-pyridin-2-ylmethyl)-3H-benzoimidazol-5-ylmethyl]-(3-bromo-phenyl)-amino]-propionamide], the melting point stood at 245 °C. Also, the EC50 in data set [1] (setting [3]) is 0.251 nM.

For the molecule `Cc1ccc(O)c(Cn2c(N)nc3ccc(CN(CCCCO)c4cccc(Br)c4)cc32)n1` [Compound 139, 2-(2-Amino-6-{[(3-bromo-phenyl)-(4-hydroxy-butyl)-amino]-methyl}-benzoimidazol-1-ylmethyl)-6-methyl-pyridin-3-ol], the melting point was found to be 120 °C. Besides, the EC50 in data set [1] (setting [3]) is 0.398 nM.

On to `Cc1ccc(O)c(Cn2c(N)nc3ccc(CN(CCN4CCOCC4)c4ccccc4CCO)cc32)n1` [Compound 160, 2-(2-Amino-6-{[[2-(2-hydroxy-ethyl)-phenyl]-(2-morpholin-4-yl-ethyl)-amino]-methyl}-benzoimidazol-1-ylmethyl)-6-methyl-pyridin-3-ol], for which the melting point is 184 °C. Also, the EC50 in data set [1] (setting [3]) was 7.94 nM.

Turning to `Cc1cccc(N(CCC(=O)O)Cc2ccc3nc(N)n(Cc4nc(C)ccc4O)c3c2)c1` [Compound 161, 3-{[2-amino-3-(3-hydroxy-6-methyl-pyridin-2-ylmethyl)-3H-benzoimidazol-5-ylmethyl]-m-tolyl-amino}-propionic acid], the melting point was determined as 165 °C. Further, the EC50 in data set [1] (setting [3]) is 7.94 nM.

Turning to `Cc1ccc(O)c(Cn2c(N)nc3ccc(Cn4c(=O)n(C5CC5)c5ccncc54)cc32)n1` [Compound 183], the melting point was above 250 °C. Besides, the EC50 in data set [1] (168 h, Table 3b, RSV in HeLa cells, MTT, seven days after infection, pEC50 = -log of EC50 in molar units, read-out: Activity (converted)) is 39.8 nM.

As to `Cc1cccc(NCc2cc(C)c3nc(N)n(Cc4nc(C)ccc4O)c3c2)c1` [Compound 194, 2-[2-amino-4-methyl-6-(m-tolylamino-methyl)-benzoimidazol-1-ylmethyl]-6-methyl-pyridin-3-ol], the melting point was determined as 252 °C. The EC50 in data set [1] (setting [4]) was 12.6 nM.

As to `CNc1nc2ccc(CN(CCO)c3cccc(C)c3)cc2n1Cc1nc(C)ccc1O` [Compound 195, 2-(6-{[(2-hydroxy-ethyl)-m-tolyl-amino]-methyl}-2-methylamino-benzoimidazol-1-ylmethyl)-6-methyl-pyridin-3-ol], the melting point came out at 204 °C. The EC50 in data set [1] (setting [4]) is 15.8 nM.

In turn, `Cc1cccc(N(CCCO)Cc2ccc3nc(N)n(Cc4cccc5cccnc45)c3c2)c1` [Compound 205, 3-[(2-amino-3-quinolin-8-ylmethyl-3H-benzoimidazol-5-ylmethyl)-m-tolyl-amino]-propan-1-ol] had a melting point of 191 °C. Besides, the EC50 in data set [1] (setting [5]) was 50.1 nM.

Consider `Nc1nc2cc(CO)ccc2n1Cc1cccc2cccnc12` [Compound 224, (2-amino-1-quinolin-8-ylmethyl-1H-benzoimidazol-5-yl)-methanol], for which the melting point was above 260 °C. Moreover, the EC50 in data set [1] (setting [5]) is above 100000 nM.

In turn, `Cc1ccc(O)c(Cn2cnc3cc(N)ccc32)n1` [Compound 259] registered a melting point of 248 °C. Moreover, the EC50 in data set [1] (setting [6]) was above 100000 nM.

The molecule `Cc1ccc(O)c(Cn2cnc3ccc(N)cc32)n1` [Compound 261] displayed a melting point above 250 °C. In addition, the EC50 in data set [1] (setting [6]) is above 100000 nM.

Source of the values: patent publication US8044073B2, “Aminobenzimidazoles and benzimidazoles as inhibitors of respiratory syncytial virus replication” (Tibotec Pharmaceuticals, priority 2003, dated 2011).
